{"source": "patent USRE41253E1", "about": "“Antineoplastic combinations” (Wyeth, priority 2001, dated 2010)", "system": "HCT 116 colon adenocarcinoma cells", "test": "Cell Proliferation Procedure (SRB, three days)", "type": "cell-based", "settings": "for IC50: growth for 3 days, SRB, single agent, read-out: IC50 value, drug alone", "experimental": "Cell Proliferation Procedure—HCT 116 colon adenocarcinoma cells were maintained in RPMI 1640 medium (Life Technologies, Inc., Gaithersburg, Md.) supplemented with 10% fetal bovine serum (FBS, Life Technologies) and 50 μg/ml gentamicin (Life Technologies) under 7% CO2 at 37° C. Cells were plated in 96-well microtiter dishes (6000 cells/well) in 200 μl RPMI 1640 medium containing 5% FBS and 50 μg/ml gentamicin and incubated overnight at 37° C. Compound dilutions were prepared in the same medium, at 5× final concentration, and 50 μl of the drug dilution was added to the cell-containing wells. For studies involving combinations of two drugs, serial dilutions of one compound were prepared in the presence of a fixed dose of a second compound. Alternatively, a checkerboard dilution series was employed. Cells were cultured for three days in the presence of the drugs. Untreated cells were included as controls. The percentage of surviving cells was determined using sulforhodamine B (SRB, Sigma-Aldrich, St Louis, Mo.), a protein binding dye. Cellular protein was precipitated in each well by the addition of 50 μl of 50% cold trichloroacetic acid. After 1 hour, the plates were washed extensively in water and dried. SRB dye reagent (0.4% SRB in 1% acetic acid, 80 μl per well) was added and plates were kept at room temperature for ten minutes. Plates were then washed thoroughly in 1% acetic acid and dried. Cell-associated dye was dissolved in 10 mM Tris (150 μl) and the absorbance was read at 540 nm in a microtiter plate reader. The concentration of compound that caused a fixed percentage inhibition of growth was determined by plotting cell survival (relative to untreated cells) against the compound dose.", "key": {"[1]": {"settings": "Homo sapiens, HCT-116, 72 h, HCT116 cells"}}, "data": [{"smiles": "CO[C@H]1C[C@@H]2CC[C@@H](C)[C@@](O)(O2)C(=O)C(=O)N2CCCC[C@H]2C(=O)O[C@H]([C@H](C)C[C@@H]2CC[C@@H](OC(=O)C(C)(CO)CO)[C@H](OC)C2)CC(=O)[C@H](C)/C=C(\\C)[C@@H](O)[C@@H](OC)C(=O)[C@H](C)C[C@H](C)/C=C/C=C/C=C/1C", "note": "[CCI-779, rapamycin 42-ester with 3-hydroxy-2-(hydroxymethyl)-2-methylpropionic acid]", "values": [{"measurement": "high doses that inhibit the cells (cells somewhat resistant)", "setting": "HCT 116 cells, CCI-779 alone", "value": "5 to 10", "unit": "µg/mL"}, {"measurement": "inhibition at 0.026 µg/mL", "setting": "Homo sapiens, HCT-116, 72 h, HCT116 cells, 3 days, 0.026 μg/ml CCI-779 alone", "value": 36, "unit": "%"}, {"measurement": "inhibition at 2.08 µg/mL", "setting": "Homo sapiens, HCT-116, 72 h, HCT116 cells, 3 days, 2.08 μg/ml CCI-779 alone, read-out: inhibition of growth when administered alone", "value": 41, "unit": "%"}, {"measurement": "IC50", "setting": "[1]", "value": 4.3, "unit": "µg/mL"}]}, {"smiles": "CCOc1cc2ncc(C#N)c(Nc3ccc(F)c(Cl)c3)c2cc1NC(=O)C=CCN(C)C", "note": "[EKB-569, 4-dimethylamino-but-2-enoic acid [4-(3-chloro-4-fluoro-phenylamino)-3-cyano-7-ethoxy-quinolin-6-yl]-amide]", "values": [{"measurement": "IC50", "setting": "[1]", "value": 0.31, "unit": "µg/mL"}]}]}
